PubChem BioAssay (NCI)
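In this assay, cells in 96-well plates receive the compound at five concentrations for 48 hours. Endpoints are linearly interpolated between the surrounding concentrations. GI50 is the concentration that inhibits growth by half. TGI marks complete inhibition of growth.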

Columns and labels:
Assay in all cases: NCI tumour cell line growth inhibition, 48 h
HCT-116 colon = system: HCT-116 colon
SF-268 CNS = system: SF-268 CNS
UO-31 renal = system: UO-31 renal
NCI-H460 lung = system: NCI-H460 lung
OVCAR-8 ovarian = system: OVCAR-8 ovarian
M14 melanoma = system: M14 melanoma
NCI-H226 lung = system: NCI-H226 lung

Row | SMILES | GI50 (HCT-116 colon) [µM] | TGI (HCT-116 colon) [µM] | GI50 (SF-268 CNS) [µM] | TGI (SF-268 CNS) [µM] | GI50 (UO-31 renal) [µM] | TGI (UO-31 renal) [µM] | GI50 (NCI-H460 lung) [µM] | TGI (NCI-H460 lung) [µM] | GI50 (OVCAR-8 ovarian) [µM] | TGI (OVCAR-8 ovarian) [µM] | GI50 (M14 melanoma) [µM] | TGI (M14 melanoma) [µM] | TGI (NCI-H226 lung) [µM] | GI50 (NCI-H226 lung) [µM]
1 | N.N.N.N.N.NC(=O)c1nn[n-]n1.[Cl-].[Co+3] | > 100 | > 100 | > 100 | > 100 | > 100 | > 100 | > 100 | > 100 | > 100 | > 100 | > 100 | > 100 | – | –
2 | COc1cc(Br)c(C=Nc2cccc3cc(OC)c(OC)cc23)cc1OC | – | > 100 | – | > 100 | – | > 100 | – | > 100 | – | > 100 | – | > 100 | 82 | –
3 | O=C1CC(O)CC(=O)C1=C(O)CCCCCCCCCCc1ccccc1 (configuration not stated) | – | > 100 | – | > 100 | – | > 100 | – | > 100 | – | > 100 | – | > 100 | 94.7 | –
4 | O=C(O)CCN(CCCCN(CCC(=O)O)CCC(=O)O)CCC(=O)O | – | > 100 | – | > 100 | – | – | – | > 100 | – | > 100 | – | > 100 | – | –
5 | COc1ccc(C23C(=O)c4ccccc4N2O[C@H]2C(=O)N(c4ccccc4)C(=O)[C@H]23)cc1 (some centres not stated) | – | > 100 | – | > 100 | – | > 100 | – | > 100 | – | > 100 | – | > 100 | > 100 | –
6 | N.N.N.N.[Co+3].[N-]=[N+]=[N-].[N-]=[N+]=[N-].[N-]=[N+]=[N-] | 85.5 | > 100 | 47.4 | > 100 | 29.2 | > 100 | > 100 | > 100 | > 100 | > 100 | > 100 | > 100 | – | –
7 | O=C1N(C2CCCCC2)CC12CCCCC2 | – | > 100 | – | > 100 | – | > 100 | – | > 100 | – | > 100 | – | > 100 | > 100 | –
8 | Cc1nnn[n-]1.N.N.N.N.N.[Cl-].[Co+3] | > 100 | > 100 | > 100 | > 100 | > 100 | > 100 | > 100 | > 100 | > 100 | > 100 | > 100 | > 100 | > 100 | > 100
9 | CC1(C)O[C@H]2[C@H](O)C[C@](O)(CO)C[C@H]2O1 | – | > 100 | – | – | – | > 100 | – | > 100 | – | > 100 | – | > 100 | > 100 | –
10 | NC(=O)C(=O)N/N=C1\C(=O)N(c2ccc(Cl)cc2Cl)C(=O)C1C(=O)Nc1ccc(Cl)cc1Cl (configuration not stated) | – | > 100 | – | > 100 | – | > 100 | – | > 100 | – | > 100 | – | > 100 | > 100 | –
11 | O=[N+]([O-])c1ccc(C[P+](c2ccccc2)(c2ccccc2)c2ccccc2)cc1 | – | > 100 | – | – | – | > 100 | – | > 100 | – | > 100 | – | > 100 | > 100 | –
12 | COC(=O)NC(=O)c1cn(C2OC(CO)C(O)C2O)c(=O)[nH]c1=O (configuration not stated) | – | > 100 | – | > 100 | – | > 100 | – | > 100 | – | > 100 | – | > 100 | > 100 | –
13 | CCOC(=O)C12CCCC1(O)N(NC(=O)OC(C)(C)C)C(C)=C2C(=O)OC (configuration not stated) | – | > 100 | – | > 100 | – | > 100 | – | > 100 | – | > 100 | – | > 100 | > 100 | –
14 | CCCCCCCCCCCc1nnc(N)o1 | – | > 100 | – | > 100 | – | 38.3 | – | > 100 | – | > 100 | – | > 100 | > 100 | –
15 | COc1ccc(/C=N/N=C(\N)NO)cc1O | – | > 100 | – | > 100 | – | > 100 | – | > 100 | – | – | – | – | > 100 | –
16 | O/N=C1/C(=C/c2ccc3c(c2)OCO3)CCCC1C(NO)c1ccc2c(c1)OCO2 (configuration not stated) | – | 31.9 | – | > 100 | – | 58.5 | – | 71.1 | – | 67.1 | – | 36.9 | – | –
17 | COC(=O)CC1C[C@H](C#N)N(C(=O)c2ccccc2)C[C@@H]1CC[N+](=O)[O-] (some centres not stated) | – | > 100 | – | > 100 | – | > 100 | – | > 100 | – | > 100 | – | > 100 | – | –
18 | CC1=C(C(=O)Nc2cc(=O)n(C)c(=O)n2C)C(c2ccco2)C(C(=O)Nc2cc(=O)n(C)c(=O)n2C)=C(C)N1 | – | – | – | > 100 | – | > 100 | – | > 100 | – | > 100 | – | > 100 | > 100 | –
19 | O=C(O)C1=C(O)C(C(=O)O)C23CCCCCCCCCCC12C(C(=O)O)C(O)=C3C(=O)O (configuration not stated) | – | – | – | > 100 | – | > 100 | – | > 100 | – | > 100 | – | > 100 | > 100 | –
20 | Cc1cc(CC(=O)NCCO)n(CCO)c(=O)c1 | – | > 100 | – | > 100 | – | > 100 | – | > 100 | – | > 100 | – | > 100 | – | –
21 | C=CCNC(=O)N(CCCCC(NC(C)=O)C(=O)NCc1ccccc1)Cc1ccccc1 (configuration not stated) | – | – | – | > 100 | – | > 100 | – | > 100 | – | > 100 | – | > 100 | > 100 | –
